Assay results as given in patent US20230099344A1, “COMPOUNDS AND METHODS FOR THE TARGETED DEGRADATION OF IRAK-4” (Arvinas Operations, Inc., priority 2021, published 2023).
pIC50: −log10 of the molar value.

Experiments:
Type in all cases: cell-based
[1] = test system: IL6; test: LPS stimulated IL6 inhibition assay in PBMC; conditions: human PBMCs, LPS stimulation, compound overnight, IL6 by MSD after 24 hrs; for Dmax: read-out: LPS Stim IL6 inhibition Dmax; for pIC50: read-out: LPS stim IL6 inhibition IC50
Summary of the method: (§1)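 Primary human PBMCs plated at 2.0×10^6 cells/mL are incubated with compound overnight. Stimulation follows using the donor's EC50 concentration of agonist. MSD detects secreted IL6/IL8 at 24 hrs.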

[2] = test system: IL6; test: R848 stimulated IL6 inhibition assay in PBMC; conditions: human PBMCs, R848 stimulation, compound overnight, IL6 by MSD after 24 hrs; for Dmax: Homo sapiens, 24 h, read-out: R848 stim IL6 inhibition Dmax; for pIC50: read-out: R848 stim IL6 inhibition IC50
Summary of the method: as §1

[3] = target: T1, IRAK-4 (Homo sapiens, UniProt Q9NWZ3); test: IRAK-4 ELISA, PBMC degradation; parameters: endogenous in cells; host or cells: PBMC; conditions: treated overnight
T1 sequence (Q9NWZ3 1-460): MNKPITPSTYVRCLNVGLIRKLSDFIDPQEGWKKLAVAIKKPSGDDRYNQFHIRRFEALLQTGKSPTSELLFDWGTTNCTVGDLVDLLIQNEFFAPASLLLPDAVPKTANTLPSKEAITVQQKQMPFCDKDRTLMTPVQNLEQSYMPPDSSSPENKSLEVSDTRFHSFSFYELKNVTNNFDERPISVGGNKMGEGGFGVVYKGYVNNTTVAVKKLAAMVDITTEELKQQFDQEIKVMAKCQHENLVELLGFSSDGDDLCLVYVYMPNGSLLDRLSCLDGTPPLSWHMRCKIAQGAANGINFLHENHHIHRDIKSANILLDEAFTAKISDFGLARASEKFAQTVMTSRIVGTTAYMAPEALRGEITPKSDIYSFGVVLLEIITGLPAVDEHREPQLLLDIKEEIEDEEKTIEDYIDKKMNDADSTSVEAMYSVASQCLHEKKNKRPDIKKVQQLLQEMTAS
Summary of the method: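 OCI-Ly10 cells (1×10^6/ml) or PBMC (2×10^6/ml) treated with compound on the day of seeding and incubated overnight. IRAK-4 protein remaining in cell lysates quantified by sandwich ELISA.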

Compound | Dmax ([1]; Homo sapiens, PBMC, 24 h) [%] | pIC50 ([1]; Homo sapiens, PBMC, 24 h) | Dmax ([2]; PBMC) [%] | pIC50 ([2]; PBMC) | DC50 [3] [µM] | Dmax [3] [%] | PBMC DC90 [3] | LPS Stim IL6 inhibition Dmax [1] | pIC50 [1] | R848 stim IL6 inhibition Dmax [2] | pIC50 [2] | PBMC Dmax [3]
O=C1CCC(N2Cc3c(ccc(N4CCC(CN5CCC(n6cc7cc(NC(=O)c8cnn9cccnc89)c(OCC(F)F)cc7n6)CC5)CC4)c3F)C2=O)C(=O)N1 (stereo not shown) [Example 154] | 80 to 90 | > 8.00 | ≥ 90 | > 8.00 | < 0.001 | 80 to 90 | A (A represents a DC90 value <10.0 nM) | – | – | – | – | –
CCN([C@H]1CC[C@H](n2cc3cc(NC(=O)c4cnn5cccnc45)c(OCC4CC4)cc3n2)CC1)[C@H]1C[C@H](Oc2ccc3c(c2)C(=O)N(C2CCC(=O)NC2=O)C3=O)C1 (stereo partly shown) [Example 373] | 70 to 80 | 7.30 to 8.00 | 80 to 90 | 7.30 to 8.00 | < 0.001 | ≥ 90 | A (A represents a DC90 value <10.0 nM) | – | – | – | – | –
O=C1CC[C@@H](N2C(=O)c3ccc(N4CC(F)(CN5CCC(n6cc7cc(NC(=O)c8cnn9cccnc89)c(OCC8CC8)cc7n6)CC5)C4)cc3C2=O)C(=O)N1 [Example 253] | < 70 | 7.30 to 8.00 | ≥ 90 | 7.30 to 8.00 | 0.001 to 0.005 | ≥ 90 | B (B represents a DC90 value ≥10.0 nM and <25.0 nM) | – | – | – | – | –
CC(C)Oc1cc2c(cc1NC(=O)c1cnn3cccnc13)CN([C@H]1CC[C@H](N3CC4(CN(c5ccc6c(c5)C(=O)N(C5CCC(=O)NC5=O)C6=O)C4)C3)CC1)C2=O (stereo partly shown) [Example 366] | 80 to 90 | > 8.00 | ≥ 90 | > 8.00 | 0.001 to 0.005 | ≥ 90 | A (A represents a DC90 value <10.0 nM) | – | – | – | – | –
O=C1CCC(N2C(=O)c3ccc(N4CCC5(CC4)CN(CCN4CCC(n6cc7cc(NC(=O)c8cnn9cccnc89)c(OCC8CC8)cc7n6)CC4)C5)cc3C2=O)C(=O)N1 (stereo not shown) [Example 249] | < 70 | ≤ 7.00 | 80 to 90 | 7.30 to 8.00 | 0.001 to 0.005 | ≥ 90 | A (A represents a DC90 value <10.0 nM) | – | – | – | – | –
CC(C)Oc1cc2c(cc1NC(=O)c1cnn3cccnc13)CN(C1CCN(CC3(F)CN(c4cc(F)c5c(c4)C(=O)N(C4CCC(=O)NC4=O)C5)C3)CC1)C2=O (stereo not shown) [Example 108] | 80 to 90 | 7.30 to 8.00 | ≥ 90 | 7.30 to 8.00 | 0.001 to 0.005 | ≥ 90 | B (B represents a DC90 value ≥10.0 nM and <25.0 nM) | – | – | – | – | –
O=C1CCC(N2C(=O)c3ccc(C4CCN(C[C@H]5CC[C@H](n6cc7cc(NC(=O)c8cnn9cccnc89)c(OCC8CC8)cc7n6)CC5)CC4)cc3C2=O)C(=O)N1 (stereo partly shown) [Example 429, N-[6-(cyclopropylmethoxy)-2-[(1r,4r)-4-({4-[2-(2,6-dioxopiperidin-3-yl)-1,3-dioxo-2,3-dihydro-1H-isoindol-5-yl]piperidin-1-yl}methyl)cyclohexyl]-2H-indazol-5-yl]pyrazolo[1,5-a]pyrimidine-3-carboxamide] | 70 to 80 | > 8.00 | ≥ 90 | 7.30 to 8.00 | < 0.001 | ≥ 90 | A (A represents a DC90 value <10.0 nM) | – | – | – | – | –
O=C1CCC(NC(=O)c2cc(N3CC(CN4CCC(n5cc6cc(NC(=O)c7cnn8cccnc78)c(OCC7CC7)cc6n5)CC4)C3)ccc2F)C(=O)N1 (stereo not shown) [Example 306] | 70 to 80 | ≤ 7.00 | ≥ 90 | ≤ 7.00 | ≥ 0.01 | 70 to 80 | D (D represents a DC90 value ≥50 nM) | – | – | – | – | –
O=C1CCC(N2Cc3cc(N4CC(F)(CN5CCC(N6Cc7cc(NC(=O)c8cnn9cccnc89)c(N8CCC(N9CCC9)CC8)cc7C6=O)CC5)C4)ccc3C2=O)C(=O)N1 (stereo not shown) [Example 117] | 70 to 80 | 7.30 to 8.00 | 80 to 90 | 7.30 to 8.00 | 0.001 to 0.005 | ≥ 90 | B (B represents a DC90 value ≥10.0 nM and <25.0 nM) | – | – | – | – | –
O=C1CCC(N2Cc3ccc(N4CC(F)(CN5CCC(n6cc7cc(NC(=O)c8cnn9cccnc89)c(OCC8CC8)cc7n6)CC5)C4)cc3C2=O)C(=O)N1 (stereo not shown) [Example 245] | 80 to 90 | 7.30 to 8.00 | ≥ 90 | > 8.00 | 0.001 to 0.005 | 70 to 80 | A (A represents a DC90 value <10.0 nM) | – | – | – | – | –
CC(C)Oc1cc2c(cc1NC(=O)c1cnn3cccnc13)CN([C@H]1CC[C@H](N(C)C3CN(c4ccc5c(c4F)CN(C4CCC(=O)NC4=O)C5=O)C3)CC1)C2=O (stereo partly shown) [Example 364] | < 70 | 7.00 to 7.30 | ≥ 90 | > 8.00 | 0.001 to 0.005 | ≥ 90 | A (A represents a DC90 value <10.0 nM) | – | – | – | – | –
O=C1CCC(N2C(=O)c3ccc(N4CC(F)(CN5CCC(n6cc7cc(NC(=O)c8cnn9cccnc89)c(N8CCOCC8)cc7n6)CC5)C4)cc3C2=O)C(=O)N1 (stereo not shown) [Example 218] | 70 to 80 | 7.30 to 8.00 | ≥ 90 | > 8.00 | 0.005 to 0.01 | 80 to 90 | D (D represents a DC90 value ≥50 nM) | – | – | – | – | –
CC(C)Oc1cc2c(cc1NC(=O)c1cnn3cccnc13)CN([C@H]1CC[C@H](CN3CCN(c4ccc5c(c4)C(=O)N(C4CCC(=O)NC4=O)C5=O)CC3)CC1)C2=O (stereo partly shown) [Example 431] | 70 to 80 | 7.30 to 8.00 | ≥ 90 | 7.30 to 8.00 | 0.001 to 0.005 | ≥ 90 | A (A represents a DC90 value <10.0 nM) | – | – | – | – | –
Cn1c(=O)n(C2CCC(=O)NC2=O)c2cccc(N3CC(N(C)[C@H]4CC[C@H](n5cc6cc(NC(=O)c7cnn8cccnc78)c(OCC7CC7)cc6n5)CC4)C3)c21 (stereo partly shown) [Example 346] | 80 to 90 | > 8.00 | ≥ 90 | 7.30 to 8.00 | 0.001 to 0.005 | 80 to 90 | B (B represents a DC90 value ≥10.0 nM and <25.0 nM) | – | – | – | – | –
O=C1CCC(N2Cc3ccc(N4CCC(CN5CCC(n6cc7cc(NC(=O)c8cnn9cccnc89)c(OCC8CC8)cc7n6)CC5)CC4)cc3C2=O)C(=O)N1 (stereo not shown) [Example 155] | 80 to 90 | > 8.00 | ≥ 90 | > 8.00 | < 0.001 | ≥ 90 | A (A represents a DC90 value <10.0 nM) | – | – | – | – | –
O=C1CCC(N2Cc3c(ccc(N4CCC(CN5CCC(N6Cc7cc(NC(=O)c8cnn9cccnc89)c(N8CCN(C9CC(F)(F)C9)CC8)cc7C6=O)CC5)CC4)c3F)C2=O)C(=O)N1 (stereo not shown) [Example 55] | < 70 | > 8.00 | ≥ 90 | 7.30 to 8.00 | < 0.001 | ≥ 90 | A (A represents a DC90 value <10.0 nM) | – | – | – | – | –
CC(C)Oc1cc2c(cc1NC(=O)c1cnn3cccnc13)CN([C@H]1CC[C@H](N(C)C3CN(c4cccc5c4n(C)c(=O)n5C4CCC(=O)NC4=O)C3)CC1)C2=O (stereo partly shown) [Example 384, N-(2-((1r,4r)-4-((1-(1-(2,6-dioxopiperidin-3-yl)-3-methyl-2-oxo-2,3-dihydro-1H-benzo[d]imidazol-4-yl)azetidin-3-yl)(methyl)amino)cyclohexyl)-6-isopropoxy-1-oxoisoindolin-5-yl)pyrazolo[1,5-a]pyrimidine-3-carboxamide] | – | – | – | – | < 0.001 | – | A (A represents a DC90 value <10.0 nM) | C (C represents a Ymax value ≥70 and <80) | ≤ 7.00 | A (A represents a Ymax value ≥90) | > 8.00 | A (A represents a Dmax value ≥90)
CC(C)Oc1cc2c(cc1NC(=O)c1cnn3cccnc13)CN(C1CCN(CC3CN(c4cccc5c4n(C)c(=O)n5C4CCC(=O)NC4=O)C3)CC1)C2=O (stereo not shown) [Example 381] | 70 to 80 | > 8.00 | ≥ 90 | 7.30 to 8.00 | < 0.001 | ≥ 90 | A (A represents a DC90 value <10.0 nM) | – | – | – | – | –
CC(C)Oc1cc2c(cc1NC(=O)c1cnn3cccnc13)CN(C[C@@H](F)C1CCN(CC3CN(c4cccc5c4n(C)c(=O)n5C4CCC(=O)NC4=O)C3)CC1)C2=O (stereo partly shown) [Example 382] | 70 to 80 | 7.30 to 8.00 | ≥ 90 | 7.30 to 8.00 | < 0.001 | ≥ 90 | A (A represents a DC90 value <10.0 nM) | – | – | – | – | –
